Assay results taken from ChEMBL document CHEMBL4665688, “Discovery of AB680: A Potent and Selective Inhibitor of CD73” (J Med Chem, 2020).

What was measured:
5'-nucleotidase [1] = molecular target: T1, 5'-nucleotidase (Homo sapiens, UniProt P21589); test: Inhibition of human CD73 expressed in CHO cells using AMP as substrate preincubated for 60 mins followed by substrate addition and measured after 60 mins by PiColorLock gold reagent based colorimetric assay; format: cell-based
[2] = Clearance in Sprague-Dawley rat at 0.5 mg/kg, iv; format: ADME, organism-based; settings: in vivo
5'-nucleotidase [3] = molecular target: T1, 5'-nucleotidase; test: Inhibition of human CD73 using AMP as substrate by Malachite green phosphate reagent-based assay

T1 sequence (P21589 whole entry): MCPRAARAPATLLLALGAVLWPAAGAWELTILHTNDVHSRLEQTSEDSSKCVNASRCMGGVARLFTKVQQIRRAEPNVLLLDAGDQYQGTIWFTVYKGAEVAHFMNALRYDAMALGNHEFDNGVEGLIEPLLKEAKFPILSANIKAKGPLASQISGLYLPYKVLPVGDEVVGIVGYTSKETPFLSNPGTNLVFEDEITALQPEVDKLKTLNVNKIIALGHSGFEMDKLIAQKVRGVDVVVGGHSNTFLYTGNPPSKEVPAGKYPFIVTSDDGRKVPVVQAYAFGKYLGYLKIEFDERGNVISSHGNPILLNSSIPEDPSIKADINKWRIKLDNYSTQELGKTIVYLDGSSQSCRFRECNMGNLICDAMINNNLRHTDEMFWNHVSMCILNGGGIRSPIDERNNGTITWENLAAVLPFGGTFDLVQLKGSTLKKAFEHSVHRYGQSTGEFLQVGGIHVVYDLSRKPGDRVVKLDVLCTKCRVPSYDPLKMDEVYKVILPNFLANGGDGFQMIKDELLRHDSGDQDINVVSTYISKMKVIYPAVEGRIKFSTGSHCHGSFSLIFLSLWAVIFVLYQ

Structure (SMILES)	IC50 (5'-nucleotidase [1])	clearance [2]	IC50 (5'-nucleotidase [3])
CN(c1nc(Cl)nc2c1ncn2[C@@H]1O[C@H](COP(=O)(O)CP(=O)(O)O)[C@@H](O)[C@H]1O)C1CCCC1	0.12 nM		
CNc1nc(NCc2ccccc2)c2ncn([C@@H]3O[C@H](COP(=O)(O)CP(=O)(O)O)[C@@H](O)[C@H]3O)c2n1	5 nM		
Nc1ncnc2c1ncn2[C@@H]1O[C@H](COP(=O)(O)CP(=O)(O)O)[C@@H](O)[C@H]1F	18 nM		
O=P(O)(O)CP(=O)(O)OC[C@H]1O[C@@H](n2cnc3c(NC4CCCC4)nc(C(O)c4ccccc4)nc32)[C@@H](F)[C@@H]1O (stereo partly specified)	3.3 nM		
C[C@H](Nc1nc(Cl)nc2c1ccn2[C@@H]1O[C@H](COP(=O)(O)CP(=O)(O)O)[C@@H](O)[C@H]1O)c1cccc(F)c1	0.032 nM	0.667 mL/min/kg	
O=P(O)(O)CP(=O)(O)OC[C@H]1O[C@@H](n2cnc3c(NCc4ccncc4)nc(Cl)nc32)[C@@H](F)[C@@H]1O	3.6 nM		
COc1nc(NCc2ccccc2)c2ncn([C@@H]3O[C@H](COP(=O)(O)CP(=O)(O)O)[C@@H](O)[C@H]3O)c2n1	2.2 nM		
O=P(O)(O)CP(=O)(O)OC[C@H]1O[C@@H](n2cnc3c(NCc4ccccc4)nc(C(F)(F)F)nc32)[C@@H](F)[C@@H]1O	18 nM		
C[C@H](Nc1nc(Cl)nc2c1ncn2[C@@H]1O[C@H](COP(=O)(O)CP(=O)(O)O)[C@@H](O)[C@@H]1F)c1ccccc1	4.1 nM	0.35 mL/min/kg	
O=P(O)(O)CP(=O)(O)OC[C@H]1O[C@@H](n2cnc3c(NCc4ccc(Cl)cc4)nc(Cl)nc32)[C@@H](F)[C@@H]1O	2.4 nM		
O=P(O)(O)CP(=O)(O)OC[C@H]1O[C@@H](n2cnc3c(NC4CCCC4)nc(C(O)C4CCOCC4)nc32)[C@@H](F)[C@@H]1O (stereo partly specified)	202 nM		
C[C@H](Nc1nc(Cl)nc2c1ncn2[C@@H]1O[C@H](COP(=O)(O)CP(=O)(O)O)[C@@H](O)[C@H]1O)c1ccccc1	0.3 nM		
C[C@@H](Nc1nc(Cl)nc2c1ncn2[C@@H]1O[C@H](COP(=O)(O)CP(=O)(O)O)[C@@H](O)[C@@H]1F)c1ccccc1	1.6 nM	4.67 mL/min/kg	
C[C@H](Nc1nc(Cl)nc2c1cnn2[C@@H]1O[C@H](COP(=O)(O)CP(=O)(O)O)[C@@H](O)[C@H]1O)c1cccc(F)c1	0.031 nM	0.833 mL/min/kg	
C[C@@H](Nc1nc(Cl)nc2c1ncn2[C@@H]1O[C@H](COP(=O)(O)CP(=O)(O)O)[C@@H](O)[C@H]1O)c1ccccc1	0.7 nM		
CC(C)Nc1nc(Cl)nc2c1ncn2[C@@H]1O[C@H](COP(=O)(O)CP(=O)(O)O)[C@@H](O)[C@H]1O	0.7 nM		
O=P(O)(O)CP(=O)(O)OC[C@H]1O[C@@H](n2cnc3c(N4Cc5ccccc5C4)nc(Cl)nc32)[C@@H](F)[C@@H]1O	1.1 nM		
O=P(O)(O)CP(=O)(O)OC[C@H]1O[C@@H](n2cnc3c(NC4CCCC4)nc(C(O)C4CC4)nc32)[C@@H](F)[C@@H]1O (stereo partly specified)	1.4 nM		
C#Cc1nc(NCc2ccccc2)c2ncn([C@@H]3O[C@H](COP(=O)(O)CP(=O)(O)O)[C@@H](O)[C@@H]3F)c2n1	2 nM		

Structure (SMILES)	IC50 (5'-nucleotidase [1])	clearance [2]	IC50 (5'-nucleotidase [3])
O=P(O)(O)CP(=O)(O)OC[C@H]1O[C@@H](n2cnc3c(NCc4ccccc4Cl)nc(Cl)nc32)[C@@H](F)[C@@H]1O	4.2 nM		
C[C@H](Nc1nc(Cl)nc2c1cnn2[C@@H]1O[C@H](COP(=O)(O)CP(=O)(O)O)[C@@H](O)[C@@H]1F)c1ccccc1	5.4 nM	0.483 mL/min/kg	
C[C@H](Nc1nc(Cl)nc2c1ccn2[C@@H]1O[C@H](COP(=O)(O)CP(=O)(O)O)[C@@H](O)[C@H]1O)c1ccccc1F	0.028 nM	0.833 mL/min/kg	
O=P(O)(O)CP(=O)(O)OC[C@H]1O[C@@H](n2cnc3c(NCc4ccccc4)nc(N4CCCC4)nc32)[C@H](O)[C@@H]1O	48 nM		
Nc1nc(Cl)nc2c1ncn2[C@@H]1O[C@H](COP(=O)(O)CP(=O)(O)O)[C@@H](O)[C@@H]1F	3.4 nM		
Nc1ncnc2c1ncn2[C@@H]1O[C@H](COP(=O)(O)CP(=O)(O)O)[C@@H](O)[C@H]1O [PHOSPHOMETHYLPHOSPHONIC ACID ADENOSYL ESTER]			187 nM
C[C@@H](Nc1nc(Cl)nc2c1cnn2[C@@H]1O[C@H](COP(=O)(O)CP(=O)(O)O)[C@@H](O)[C@@H]1F)c1ccccc1	2.1 nM	9.33 mL/min/kg	
O=P(O)(O)CP(=O)(O)OC[C@H]1O[C@@H](n2cnc3c(NCc4ccccc4)nc(CCc4ccccc4)nc32)[C@@H](F)[C@@H]1O	18 nM		
O=P(O)(O)CP(=O)(O)OC[C@H]1O[C@@H](n2cnc3c(N4CCCC4)nc(Cl)nc32)[C@@H](F)[C@@H]1O	0.9 nM		
C[C@H](Nc1nc(Cl)nc2c1cnn2[C@@H]1O[C@H](COP(=O)(O)CP(=O)(O)O)[C@@H](O)[C@H]1O)c1ccc(F)cc1	0.095 nM		
Nc1nc(Cl)nc2c1ncn2[C@@H]1O[C@H](COP(=O)(O)CP(=O)(O)O)[C@@H](O)[C@H]1O	5 nM		
O=P(O)(O)CP(=O)(O)OC[C@H]1O[C@@H](n2ncc3c(NCc4ccccc4)nc(Cl)nc32)[C@@H](F)[C@@H]1O	5.9 nM		
O=P(O)(O)CP(=O)(O)OC[C@H]1O[C@@H](n2cnc3c(NCc4ccccc4)nc(Cc4ccccc4)nc32)[C@@H](F)[C@@H]1O	1.5 nM		
CCc1nc(NCc2ccccc2)c2ncn([C@@H]3O[C@H](COP(=O)(O)CP(=O)(O)O)[C@@H](O)[C@H]3O)c2n1	12 nM		
O=P(O)(O)CP(=O)(O)OC[C@H]1O[C@@H](n2ncc3c(NC4CCCC4)nc(Cl)nc32)[C@H](O)[C@@H]1O	0.027 nM	10.5 mL/min/kg	
Cc1nc(NCc2ccccc2)c2ncn([C@@H]3O[C@H](COP(=O)(O)CP(=O)(O)O)[C@@H](O)[C@@H]3F)c2n1	4 nM		
CC(C)Nc1nc(Cl)nc2c1ncn2[C@@H]1O[C@H](COP(=O)(O)CP(=O)(O)O)[C@@H](O)[C@@H]1F	3.6 nM		
CCNc1nc(Cl)nc2c1ncn2[C@@H]1O[C@H](COP(=O)(O)CP(=O)(O)O)[C@@H](O)[C@@H]1F	5 nM		
CN(c1nc(Cl)nc2c1ncn2[C@@H]1O[C@H](COP(=O)(O)CP(=O)(O)O)[C@@H](O)[C@@H]1F)C1CCCC1	0.15 nM		

Structure (SMILES)	IC50 (5'-nucleotidase [1])	clearance [2]	IC50 (5'-nucleotidase [3])
O=P(O)(O)CP(=O)(O)OC[C@H]1O[C@@H](n2cnc3c(NCc4ccccc4)nc(Cl)nc32)[C@H](O)[C@@H]1O	0.3 nM		
CNc1nc(Cl)nc2c1ncn2[C@@H]1O[C@H](COP(=O)(O)CP(=O)(O)O)[C@@H](O)[C@@H]1F	12 nM		
O=P(O)(O)CP(=O)(O)OC[C@H]1O[C@@H](n2cnc3c(NC4CC4)nc(Cl)nc32)[C@@H](F)[C@@H]1O	2.6 nM		
Cc1nc(NCc2ccccc2)c2ncn([C@@H]3O[C@H](COP(=O)(O)CP(=O)(O)O)[C@@H](O)[C@H]3O)c2n1	1.3 nM		
O=P(O)(O)CP(=O)(O)OC[C@H]1O[C@@H](n2cnc3c(NCc4ccccc4)nc(-c4ccccc4)nc32)[C@@H](F)[C@@H]1O	10 nM		
O=P(O)(O)CP(=O)(O)OC[C@H]1O[C@@H](n2cnc3c(NC4CCCC4)nc(Cl)nc32)[C@@H](F)[C@@H]1O	0.4 nM	2.5 mL/min/kg	
C[C@@H](Nc1nc(Cl)nc2c1cnn2[C@@H]1O[C@H](COP(=O)(O)CP(=O)(O)O)[C@@H](O)[C@H]1O)c1ccccc1	0.058 nM	2.83 mL/min/kg	
COCc1nc(NC2CCCC2)c2ncn([C@@H]3O[C@H](COP(=O)(O)CP(=O)(O)O)[C@@H](O)[C@@H]3F)c2n1	0.6 nM		
O=P(O)(O)CP(=O)(O)OC[C@H]1O[C@@H](n2cnc3c(NCc4cccc(Cl)c4)nc(Cl)nc32)[C@@H](F)[C@@H]1O	1.3 nM		
C[C@H](Nc1nc(Cl)nc2c1ccn2[C@@H]1O[C@H](COP(=O)(O)CP(=O)(O)O)[C@@H](O)[C@H]1O)c1ccc(F)cc1	0.031 nM	0.5 mL/min/kg	
C[C@H](Nc1nc(Cl)nc2c1cnn2[C@@H]1O[C@H](COP(=O)(O)CP(=O)(O)O)[C@@H](O)[C@H]1O)c1ccccc1F	0.07 nM	0.667 mL/min/kg	
O=P(O)(O)CP(=O)(O)OC[C@H]1O[C@@H](n2cnc3c(NC4CC4)nc(Cl)nc32)[C@H](O)[C@@H]1O	1.7 nM		
O=P(O)(O)CP(=O)(O)OC[C@H]1O[C@@H](n2cnc3c(OCc4ccccc4)nc(Cl)nc32)[C@@H](F)[C@@H]1O	1.3 nM		
O=P(O)(O)CP(=O)(O)OC[C@H]1O[C@@H](n2ncc3c(NCc4ccccc4)nc(Cl)nc32)[C@H](O)[C@@H]1O	0.052 nM	3.33 mL/min/kg	
O=P(O)(O)CP(=O)(O)OC[C@H]1O[C@@H](n2cnc3c(N[C@H]4CCOC4)nc(Cl)nc32)[C@@H](F)[C@@H]1O	0.8 nM		
O=P(O)(O)CP(=O)(O)OC[C@H]1O[C@@H](n2cnc3c(NCc4ccccc4)nc(Cl)nc32)[C@@H](F)[C@@H]1O	0.7 nM	1 mL/min/kg	
O=P(O)(O)CP(=O)(O)OC[C@H]1O[C@@H](n2ncc3c(NC4CCCC4)nc(Cl)nc32)[C@@H](F)[C@@H]1O	0.15 nM	4.5 mL/min/kg	
O=P(O)(O)CP(=O)(O)OC[C@H]1O[C@@H](n2cnc3c(NC4CCCC4)nc(Cl)nc32)[C@H](O)[C@@H]1O	0.2 nM		
